Legend:
[1] = Body weight measurement in rat STZ-induced diabetes model; type: in vivo; settings: 20 mg/kg oral, mean ± SE, in g (unit assumed)
Description: (§1) Compound 9 (50 mg/mL) was diluted with water for injection to obtain a 1 mg/mL administration specimen. For the specimens to be administered at 0.1 mg/mL and 0.01 mg/mL, the specimen to be administered at 1 mg/mL was diluted stepwise with water for injection. Each administration specimen was divided into PP disposable tubes every day and stored in a storehouse (freezer: MDF-MU339H-PJ, PHC Corporation) under the condition of freezing (−30° C. to −20° C., measured value: −26.4 to −24.5° C.). Preparation was performed on the day before the start of administration.
(§2) Water for injection was added to and dissolved in Pregabalin taken out from the capsule to obtain 2 mg/mL. It was prepared before use.
(§3) • Animal species: rat (SPF) • Strain: Crl: CD (SD) • Date of animal acquisition, gender, age in weeks, number of animals acquired, and weight range after 1 day of acquisition • First and second courses: Apr. 6, 2022, male, 7 weeks old, 35 animals, 217 to 237 g • Third and fourth courses: Apr. 13, 2022, male, 7 weeks old, 35 animals, 216 to 235 g • Source: […].
(§4) • Dose volume: calculated at 2 mL/kg based on the body weight on the day of administration. • Number of times of administration: once • Day of administration: 7 days before the day of starting administration of the test substance.
(§5) • Dose volume: calculated at 1 mL/kg based on the body weight on the day of administration. • Number of times of administration: 9 times • Interval of administration: once every 3 days (evaluation was performed on the day after administration) • Day of starting administration: day 8 of STZ administration (day of STZ administration is counted as day 1).
(§6) • Dose volume: calculated at 10 mL/kg based on the body weight on the day of administration. • Number of times of administration: Administration was performed once on the day of evaluation of neuropathic pain, twice in total, and on the other days of administration, a vehicle for a control substance (water for injection) was orally administered.
• Measurement was performed every day after the day of STZ administration.
(§7) The mean and standard error of each group were calculated for the 50% withdrawal threshold, body weight, and blood glucose level.
(§8) The body weight was an integer.
(§9) No significant difference test of body weight and blood glucose levels was performed.

[2] = Measurement of blood glucose level in rat STZ-induced diabetes model; type: in vivo; settings: mean ± SE
Description: as §1, §2, §3, §4, §5, §6
On days 7 and 35 of STZ administration, about 50 μL of blood was collected from the tail vein using a winged injection needle (Terumo Corporation) equipped with a heparinized capillary (DRUMMOND […]).
The blood obtained above was centrifuged [centrifugal conditions: 4° C., 3,000 rpm (×2,150 g), 15 min] with a centrifuge (CF 9RX, Hitachi Koki Co., Ltd.) to obtain plasma. Blood glucose levels of a part of plasma obtained by blood collection on day 7 and day 35 after STZ administration were measured by hexokinase G-6 PDH method (L-type Wako Glu2, FUJIFILM Wako Pure Chemical Corporation) using a biochemical automatic analyzer (AU480, Beckman Coulter, Inc.). […] The plasma after the measurement was discarded.
as §7, §8, §9

`CC(C)C[C@H](CN)CC(=O)O` [Pregabalin, reference compound] showed a Body weight ([1]; day 1 of STZ administration) of 293 ± 5, a Body weight ([1]; day 2 of STZ administration) of 278 ± 5 and a Body weight ([1]; day 3 of STZ administration) of 272 ± 5. The Body weight ([1]; day 4 of STZ administration) was 275 ± 4, the Body weight ([1]; day 5 of STZ administration) was 280 ± 4 and the Body weight ([1]; day 6 of STZ administration) was 282 ± 4. It also gave a Body weight ([1]; day 7 of STZ administration) of 288 ± 4, a Body weight ([1]; day 8 of STZ administration) of 285 ± 4 and a Body weight ([1]; day 9 of STZ administration) of 289 ± 4. It also gave a Body weight ([1]; day 10 of STZ administration) of 291 ± 5, a Body weight ([1]; day 11 of STZ administration) of 297 ± 4 and a Body weight ([1]; day 12 of STZ administration) of 297 ± 5. For the same compound, the Body weight ([1]; day 13 of STZ administration) was 298 ± 5, the Body weight ([1]; day 14 of STZ administration) was 302 ± 6 and the Body weight ([1]; day 15 of STZ administration) was 297 ± 4. It also gave a Body weight ([1]; day 16 of STZ administration) of 300 ± 5, a Body weight ([1]; day 17 of STZ administration) of 304 ± 5 and a Body weight ([1]; day 18 of STZ administration) of 303 ± 5. It also gave a Body weight ([1]; day 19 of STZ administration) of 302 ± 6, a Body weight ([1]; day 20 of STZ administration) of 308 ± 5 and a Body weight ([1]; day 21 of STZ administration) of 305 ± 6. The Body weight ([1]; day 22 of STZ administration) was 309 ± 5, the Body weight ([1]; day 23 of STZ administration) was 307 ± 7 and the Body weight ([1]; day 24 of STZ administration) was 305 ± 7. The Body weight ([1]; day 25 of STZ administration) was 307 ± 6, the Body weight ([1]; day 26 of STZ administration) was 309 ± 6 and the Body weight ([1]; day 27 of STZ administration) was 304 ± 7. For the same compound, the Body weight ([1]; day 28 of STZ administration) was 307 ± 7, the Body weight ([1]; day 29 of STZ administration) was 302 ± 7 and the Body weight ([1]; day 30 of STZ administration) was 302 ± 7. For the same compound, the Body weight ([1]; day 31 of STZ administration) was 304 ± 8, the Body weight ([1]; day 32 of STZ administration) was 305 ± 8 and the Body weight ([1]; day 33 of STZ administration) was 307 ± 8. For the same compound, the Body weight ([1]; day 34 of STZ administration) was 306 ± 7, the Body weight ([1]; day 35 of STZ administration) was 307 ± 7 and the “Blood glucose level, Glu” value ([2]; 20 mg/kg oral group, day 7 of STZ administration (before start of dosing)) was 575.8 ± 20.0 mg/dL. For the same compound, the “Blood glucose level, Glu” value ([2]; 20 mg/kg oral, day 35 of STZ administration) was 567.4 ± 22.5 mg/dL.

Source: patent publication US20260158102A1, “CYCLIC PEPTIDE DERIVATIVE COMPOSITION FOR TREATING OR PREVENTING NEUROPATHIC PAIN AND/OR INFLAMMATORY PAIN” (DKS Co. Ltd., priority 2022, published 2026)
